Drawing on US20260022142A1, “MACROCYCLIC IMMUNOMODULATORS” (Bristol-Myers Squibb Company, priority 2022, published 2026), this text covers IC50 for twelve molecules.

As a reminder, the IC50 is the concentration needed to halve the response being measured.

Bridge positions count the residues as written; N and C are the ends. Square brackets hold non-standard residues; d marks the D form. Peptide text beside a SMILES is read from it. * marks the point of attachment. ξ: configuration not given here. Phe(4-COOH) = N[C@@H](Cc1ccc(C(=O)O)cc1)C(=O)O; Bip = N[C@@H](Cc1ccc(-c2ccccc2)cc1)C(=O)O; Phe(3-Me) = Cc1cccc(C[C@H](N)C(=O)O)c1; Cha = N[C@@H](CC1CCCCC1)C(=O)O; Cit = NC(=O)NCCC[C@H](N)C(=O)O; Thr(3ξ) = CC(O)[C@H](N)C(=O)O; Carboxymethyl = O=C(O)C*; Orn = NCCC[C@H](N)C(=O)O; Aun = NCCCCCCCCCCC(=O)O; Dab = NCC[C@H](N)C(=O)O

T1 sequence (Q15116 25-288): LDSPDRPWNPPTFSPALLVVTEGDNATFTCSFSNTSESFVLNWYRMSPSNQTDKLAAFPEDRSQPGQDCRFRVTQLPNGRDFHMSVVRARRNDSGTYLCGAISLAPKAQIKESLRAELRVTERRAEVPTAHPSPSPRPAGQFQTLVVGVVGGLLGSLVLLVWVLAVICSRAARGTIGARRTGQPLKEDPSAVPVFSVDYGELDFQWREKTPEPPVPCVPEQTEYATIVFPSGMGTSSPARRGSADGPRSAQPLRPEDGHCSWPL

The test addresses T1, PD-1/PD-L1 interaction (PE-labeled human PD-L1-Ig binding to Jurkat cell line over-expressing human PD-1) (Homo sapiens, UniProt Q15116).
T1 construct: expressed in transfected cells; host or cells: Jurkat
Put plainly: Jurkat-PD-1 Cell Binding High-Content Screening Assay (CBA). To be noted: Jurkat cell line over-expressing human PD-1; PE-labeled PD-L1-Ig 20 nM final; read-out: Jurkat hPD1-PDL1 IC50. Format: cell-based. In short, it runs like this:
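First, compound is added to PD-1-expressing Jurkat cells in serum-containing DMEM and left 2 h at 37° C. Next, PE-conjugated PD-L1-Ig is introduced at 20 nM final concentration for 1 hour. Finally, cells are fixed in 4% paraformaldehyde with Hoechst 33342, washed and imaged.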
`Cc1cccc(C[C@@H]2NC(=O)[C@H](CC(=O)O)NC(=O)[C@H](Cc3ccc(OCC(=O)O)cc3)NC(=O)[C@H](C(C)O)NC(=O)CSC[C@@H](C(=O)N[C@@H](CCN)C(=O)NCCCCCCCCCCC(=O)O)NC(=O)[C@H](C(C)O)NC(=O)[C@H](C(C)C)NC(=O)[C@H](CC3CCCCC3)NC(=O)[C@H](CCN)NC(=O)[C@@H](CC(C)C)NC(=O)[C@H](CCCN)NC(=O)[C@H](Cc3ccc(OCC(=O)O)cc3)NC(=O)[C@H](Cc3ccc(-c4ccccc4)cc3)NC(=O)[C@H](Cc3ccc(C(=O)O)cc3)NC2=O)c1` (stereo partly drawn) [Compound 3484] ({CH2CO}-[Thr(3ξ)]Y(Carboxymethyl)D[Phe(3-Me)][Phe(4-COOH)][Bip]Y(Carboxymethyl)[Orn][dL][Dab][Cha]V[Thr(3ξ)]C[Dab][Aun]-OH; thioether N-14): the IC50 amounted to 6.7 nM. The figure for `Cc1cccc(C[C@@H]2NC(=O)[C@H](CC(=O)O)NC(=O)[C@H](Cc3ccc(OCC(=O)O)cc3)NC(=O)[C@H](C(C)O)NC(=O)CSC[C@@H](C(=O)N[C@@H](CCN)C(=O)NCCCCCCCCCCC(=O)O)NC(=O)[C@H](C(C)O)NC(=O)[C@H](C(C)C)NC(=O)[C@H](CC3CCCCC3)NC(=O)[C@H](CCN)NC(=O)[C@@H](CC(C)C)NC(=O)[C@H](CCCN)NC(=O)[C@H](Cc3ccc(OCC(=O)O)cc3)NC(=O)[C@H](Cc3ccc(-c4ccccc4)cc3)NC(=O)[C@H](CCCNC(N)=O)NC2=O)c1` (stereo partly drawn) [Compound 3485] ({CH2CO}-[Thr(3ξ)]Y(Carboxymethyl)D[Phe(3-Me)][Cit][Bip]Y(Carboxymethyl)[Orn][dL][Dab][Cha]V[Thr(3ξ)]C[Dab][Aun]-OH; thioether N-14) is 16.4 nM. The figure for `Cc1cccc(C[C@@H]2NC(=O)[C@H](CC(=O)O)NC(=O)[C@H](Cc3ccc(OCC(=O)O)cc3)NC(=O)[C@H](CCCNC(=N)N)NC(=O)CSC[C@@H](C(=O)N[C@@H](CCN)C(=O)NCCCCCCCCCCC(=O)O)NC(=O)[C@H](C(C)O)NC(=O)[C@H](C(C)C)NC(=O)[C@H](CC3CCCCC3)NC(=O)[C@H](CCN)NC(=O)[C@@H](CC(C)C)NC(=O)[C@H](CCCNC(N)=O)NC(=O)[C@H](Cc3ccc(OCC(=O)O)cc3)NC(=O)[C@H](Cc3ccc(-c4ccccc4)cc3)NC(=O)[C@H](Cc3ccc(OCC(=O)O)cc3)NC2=O)c1` (stereo partly drawn) [Compound 3486] ({CH2CO}-RY(Carboxymethyl)D[Phe(3-Me)]Y(Carboxymethyl)[Bip]Y(Carboxymethyl)[Cit][dL][Dab][Cha]V[Thr(3ξ)]C[Dab][Aun]-OH; thioether N-14) is 8.4 nM; for `Cc1cccc(C[C@@H]2NC(=O)[C@H](CC(=O)O)NC(=O)[C@H](Cc3ccc(OCC(=O)O)cc3)NC(=O)[C@H](C(C)O)NC(=O)CSC[C@@H](C(=O)N[C@@H](CCN)C(=O)NCCCCCCCCCCC(=O)O)NC(=O)[C@H](C(C)O)NC(=O)[C@H](C(C)C)NC(=O)[C@H](CC3CCCCC3)NC(=O)[C@H](CCN)NC(=O)[C@@H](CC(C)C)NC(=O)[C@H](CCCNC(N)=O)NC(=O)[C@H](Cc3ccc(OCC(=O)O)cc3)NC(=O)[C@H](Cc3ccc(-c4ccccc4)cc3)NC(=O)[C@H](Cc3ccc(OCC(=O)O)cc3)NC2=O)c1` (stereo partly drawn) [Compound 3487] ({CH2CO}-[Thr(3ξ)]Y(Carboxymethyl)D[Phe(3-Me)]Y(Carboxymethyl)[Bip]Y(Carboxymethyl)[Cit][dL][Dab][Cha]V[Thr(3ξ)]C[Dab][Aun]-OH; thioether N-14) it is 30.6 nM; for `Cc1cccc(C[C@@H]2NC(=O)[C@H](CC(=O)O)NC(=O)[C@H](Cc3ccc(OCC(=O)O)cc3)NC(=O)[C@H](CCCNC(=N)N)NC(=O)CSC[C@@H](C(=O)N[C@H](CC(N)=O)C(=O)NCCCCCCCCCCC(=O)O)NC(=O)[C@H](C(C)O)NC(=O)[C@H](C(C)C)NC(=O)[C@H](CC3CCCCC3)NC(=O)[C@H](CCN)NC(=O)[C@@H](CC(C)C)NC(=O)[C@H](CCCN)NC(=O)[C@H](Cc3ccc(OCC(=O)O)cc3)NC(=O)[C@H](Cc3ccc(-c4ccccc4)cc3)NC(=O)[C@H](Cc3ccc(OCC(=O)O)cc3)NC2=O)c1` (stereo partly drawn) [Compound 3489] ({CH2CO}-RY(Carboxymethyl)D[Phe(3-Me)]Y(Carboxymethyl)[Bip]Y(Carboxymethyl)[Orn][dL][Dab][Cha]V[Thr(3ξ)]C[dN][Aun]-OH; thioether N-14) it is 22 nM.

As to `Cc1cccc(C[C@@H]2NC(=O)[C@H](CC(=O)O)NC(=O)[C@H](Cc3ccc(OCC(=O)O)cc3)NC(=O)[C@H](C(C)O)NC(=O)CSC[C@@H](C(=O)N[C@H](CC(N)=O)C(=O)NCCCCCCCCCCC(=O)O)NC(=O)[C@H](C(C)O)NC(=O)[C@H](C(C)C)NC(=O)[C@H](CC3CCCCC3)NC(=O)[C@H](CCN)NC(=O)[C@@H](CC(C)C)NC(=O)[C@H](CCCN)NC(=O)[C@H](Cc3ccc(OCC(=O)O)cc3)NC(=O)[C@H](Cc3ccc(-c4ccccc4)cc3)NC(=O)[C@H](Cc3ccc(OCC(=O)O)cc3)NC2=O)c1` (stereo partly drawn) [Compound 3490] ({CH2CO}-[Thr(3ξ)]Y(Carboxymethyl)D[Phe(3-Me)]Y(Carboxymethyl)[Bip]Y(Carboxymethyl)[Orn][dL][Dab][Cha]V[Thr(3ξ)]C[dN][Aun]-OH; thioether N-14), the IC50 stood at 5.9 nM. Take `Cc1cccc(C[C@@H]2NC(=O)[C@H](CC(=O)O)NC(=O)[C@H](Cc3ccc(OCC(=O)O)cc3)NC(=O)[C@H](CCCNC(=N)N)NC(=O)CSC[C@@H](C(=O)N[C@@H](CCN)C(=O)NCCCCCCCCCCC(=O)O)NC(=O)[C@H](C(C)O)NC(=O)[C@H](C(C)C)NC(=O)[C@H](CC3CCCCC3)NC(=O)[C@H](CCN)NC(=O)[C@@H](CC(C)C)NC(=O)[C@H](CCCN)NC(=O)[C@H](Cc3ccc(C(=O)O)cc3)NC(=O)[C@H](Cc3ccc(-c4ccccc4)cc3)NC(=O)[C@H](Cc3ccc(C(=O)O)cc3)NC2=O)c1` (stereo partly drawn) [Compound 3491] ({CH2CO}-RY(Carboxymethyl)D[Phe(3-Me)][Phe(4-COOH)][Bip][Phe(4-COOH)][Orn][dL][Dab][Cha]V[Thr(3ξ)]C[Dab][Aun]-OH; thioether N-14): the IC50 was found to be 11.4 nM. The figure for `Cc1cccc(C[C@@H]2NC(=O)[C@H](CC(=O)O)NC(=O)[C@H](Cc3ccc(OCC(=O)O)cc3)NC(=O)[C@H](C(C)O)NC(=O)CSC[C@@H](C(=O)N[C@H](CC(N)=O)C(=O)NCCCCCCCCCCC(=O)O)NC(=O)[C@H](C(C)O)NC(=O)[C@H](C(C)C)NC(=O)[C@H](CC3CCCCC3)NC(=O)[C@H](CCN)NC(=O)[C@@H](CC(C)C)NC(=O)[C@H](CCCN)NC(=O)[C@H](Cc3ccc(OCC(=O)O)cc3)NC(=O)[C@H](Cc3ccc(-c4ccccc4)cc3)NC(=O)[C@H](C(C)C)NC2=O)c1` (stereo partly drawn) [Compound 3493] ({CH2CO}-[Thr(3ξ)]Y(Carboxymethyl)D[Phe(3-Me)]V[Bip]Y(Carboxymethyl)[Orn][dL][Dab][Cha]V[Thr(3ξ)]C[dN][Aun]-OH; thioether N-14) is 9.8 nM; for `CC(=O)NCCCC[C@@H]1NC(=O)[C@H](Cc2ccc(OCC(=O)O)cc2)NC(=O)[C@H](Cc2ccc(-c3ccccc3)cc2)NC(=O)[C@H](Cc2ccc(OCC(=O)O)cc2)NC(=O)[C@H](Cc2cccc(C)c2)NC(=O)[C@H](CC(=O)O)NC(=O)[C@H](Cc2ccc(OCC(=O)O)cc2)NC(=O)[C@H](C(C)O)NC(=O)CSC[C@@H](C(=O)N[C@@H](CCN)C(=O)NCCCCCCCCCCC(=O)O)NC(=O)[C@H](C(C)O)NC(=O)[C@H](C(C)C)NC(=O)[C@H](CC2CCCCC2)NC(=O)[C@H](CCN)NC(=O)[C@@H](CC(C)C)NC1=O` (stereo partly drawn) [Compound 3495] ({CH2CO}-[Thr(3ξ)]Y(Carboxymethyl)D[Phe(3-Me)]Y(Carboxymethyl)[Bip]Y(Carboxymethyl)K(Ac)[dL][Dab][Cha]V[Thr(3ξ)]C[Dab][Aun]-OH; thioether N-14) it is 16.8 nM. As for `CC(=O)NCCCC[C@@H]1NC(=O)[C@H](Cc2ccc(OCC(=O)O)cc2)NC(=O)[C@H](Cc2ccc(-c3ccccc3)cc2)NC(=O)[C@H](Cc2ccc(OCC(=O)O)cc2)NC(=O)[C@H](Cc2cccc(C)c2)NC(=O)[C@H](CC(=O)O)NC(=O)[C@H](Cc2ccc(OCC(=O)O)cc2)NC(=O)[C@H](CCCNC(=N)N)NC(=O)CSC[C@@H](C(=O)N[C@@H](CCN)C(=O)NCCCCCCCCCCC(=O)O)NC(=O)[C@H](C(C)O)NC(=O)[C@H](C(C)C)NC(=O)[C@H](CC2CCCCC2)NC(=O)[C@H](CCN)NC(=O)[C@@H](CC(C)C)NC1=O` (stereo partly drawn) [Compound 3496] ({CH2CO}-RY(Carboxymethyl)D[Phe(3-Me)]Y(Carboxymethyl)[Bip]Y(Carboxymethyl)K(Ac)[dL][Dab][Cha]V[Thr(3ξ)]C[Dab][Aun]-OH; thioether N-14), the IC50 was determined as 11 nM. Turning to `Cc1cccc(C[C@@H]2NC(=O)[C@H](CC(=O)O)NC(=O)[C@H](Cc3ccc(OCC(=O)O)cc3)NC(=O)[C@H](C(C)O)NC(=O)CSC[C@@H](C(=O)N[C@H](CC(N)=O)C(=O)NCCCCCCCCCCC(=O)O)NC(=O)[C@H](CCN)NC(=O)[C@H](C(C)C)NC(=O)[C@H](CC3CCCCC3)NC(=O)[C@H](CCN)NC(=O)[C@@H](CC(C)C)NC(=O)[C@H](CCCN)NC(=O)[C@H](Cc3ccc(OCC(=O)O)cc3)NC(=O)[C@H](Cc3ccc(-c4ccccc4)cc3)NC(=O)[C@H](Cc3ccc(OCC(=O)O)cc3)NC2=O)c1` (stereo partly drawn) [Compound 3497] ({CH2CO}-[Thr(3ξ)]Y(Carboxymethyl)D[Phe(3-Me)]Y(Carboxymethyl)[Bip]Y(Carboxymethyl)[Orn][dL][Dab][Cha]V[Dab]C[dN][Aun]-OH; thioether N-14), the IC50 was 3.6 nM. Regarding `Cc1cccc(C[C@@H]2NC(=O)[C@H](CC(=O)O)NC(=O)[C@H](Cc3ccc(OCC(=O)O)cc3)NC(=O)[C@H](CCCNC(=N)N)NC(=O)CSC[C@@H](C(=O)N[C@H](CC(N)=O)C(=O)NCCCCCCCCCCC(=O)O)NC(=O)[C@H](C(C)O)NC(=O)[C@H](C(C)C)NC(=O)[C@H](CC3CCCCC3)NC(=O)[C@H](CCN)NC(=O)[C@@H](CC(C)C)NC(=O)[C@H](CCCNC(N)=O)NC(=O)[C@H](Cc3ccc(OCC(=O)O)cc3)NC(=O)[C@H](Cc3ccc(-c4ccccc4)cc3)NC(=O)[C@H](Cc3ccc(OCC(=O)O)cc3)NC2=O)c1` (stereo partly drawn) [Compound 3498] ({CH2CO}-RY(Carboxymethyl)D[Phe(3-Me)]Y(Carboxymethyl)[Bip]Y(Carboxymethyl)[Cit][dL][Dab][Cha]V[Thr(3ξ)]C[dN][Aun]-OH; thioether N-14), the IC50 came out at 47.2 nM.
